± gives the expanded uncertainty stated by the source.
Assays:
[1] = 298 K; 101 kPa; Crystal; X-ray diffraction
[2] = xn = mol fraction of the nth substance listed; details: 298 K, Crystal, X-ray diffraction
[3] = excess molar enthalpy (molar enthalpy of mixing); xn = mol fraction of the nth substance listed; details: 298 K, 100 kPa, Crystal, Calvet calorimetry

Compound O=P([O-])([O-])[O-].[Eu+3] [europium phosphate] has a mass density [1] of 5810 ± 40 kg/m3.

Compound O=P([O-])([O-])[O-].[La+3] [lanthanum orthophosphate] + O=P([O-])([O-])[O-].[Eu+3] has a mass density ([2]; 101 kPa, x2 = 0) of 5060 ± 30 kg/m3.

Compound O=P([O-])([O-])[O-].[Gd+3] [gadolinium orthophosphate] + O=P([O-])([O-])[O-].[La+3] has a mass density ([2]; 100 kPa, x1 = 0.11) of 5160 ± 30 kg/m3, a mass density ([2]; 100 kPa, x1 = 0.24) of 5260 ± 30 kg/m3 and a mass density ([2]; 100 kPa, x1 = 0.34) of 5340 ± 30 kg/m3. The mass density ([2]; 100 kPa, x1 = 0.44) was 5440 ± 40 kg/m3, the mass density ([2]; 100 kPa, x1 = 0.55) was 5540 ± 30 kg/m3 and the mass density ([2]; 100 kPa, x1 = 0.64) was 5630 ± 30 kg/m3. It also gave a mass density ([2]; 100 kPa, x1 = 0.76) of 5740 ± 40 kg/m3, a mass density ([2]; 100 kPa, x1 = 0.84) of 5820 ± 40 kg/m3 and a mass density ([2]; 100 kPa, x1 = 0.92) of 5900 ± 40 kg/m3. For the same compound, the mass density ([2]; 100 kPa, x1 = 1) was 5980 ± 40 kg/m3, the excess molar enthalpy ([3]; x1 = 0.24) was 0.275 ± 0.287 kcal/mol and the excess molar enthalpy ([3]; x1 = 0.44) was 0.777 ± 0.287 kcal/mol. It also gave an excess molar enthalpy ([3]; x1 = 0.55) of 0.705 ± 0.311 kcal/mol and an excess molar enthalpy ([3]; x1 = 0.76) of 0.521 ± 0.239 kcal/mol.

With O=P([O-])([O-])[O-].[La+3] [lanthanum orthophosphate] the mass density [1] was 5060 ± 30 kg/m3.

With O=P([O-])([O-])[O-].[Eu+3] [europium phosphate] + O=P([O-])([O-])[O-].[La+3] the mass density ([2]; 101 kPa, x1 = 0.11) was 5130 ± 30 kg/m3, the mass density ([2]; 101 kPa, x1 = 0.23) was 5210 ± 30 kg/m3 and the mass density ([2]; 101 kPa, x1 = 0.4) was 5340 ± 30 kg/m3. For the same compound, the mass density ([2]; 101 kPa, x1 = 0.58) was 5470 ± 30 kg/m3, the mass density ([2]; 101 kPa, x1 = 0.71) was 5570 ± 30 kg/m3 and the mass density ([2]; 101 kPa, x1 = 0.82) was 5660 ± 30 kg/m3. The mass density ([2]; 101 kPa, x1 = 0.91) was 5730 ± 30 kg/m3, the mass density ([2]; 101 kPa, x1 = 1) was 5810 ± 40 kg/m3 and the excess molar enthalpy ([3]; x1 = 0.1) was 0.452 ± 0.43 kcal/mol. It also gave an excess molar enthalpy ([3]; x1 = 0.11) of 0.234 ± 0.382 kcal/mol, an excess molar enthalpy ([3]; x1 = 0.34) of 0.129 ± 0.311 kcal/mol and an excess molar enthalpy ([3]; x1 = 0.58) of 0.203 ± 0.335 kcal/mol. For the same compound, the excess molar enthalpy ([3]; x1 = 0.71) was 0.0478 ± 0.263 kcal/mol.

O=P([O-])([O-])[O-].[Gd+3] [gadolinium orthophosphate] showed a mass density [1] of 5980 ± 40 kg/m3.

Work on O=P([O-])([O-])[O-].[La+3] [lanthanum orthophosphate] + O=P([O-])([O-])[O-].[Gd+3] yielded a mass density ([2]; 100 kPa, x2 = 0) of 5060 ± 30 kg/m3.
